Test results reported in BindingDB's records for doi:10.1021/acs.jmedchem.6b01442 (Tsinghua University, 2017).

Test: Inhibition of HBV capsid assembly infected in human HepG2(2.2.15) cells assessed as inhibition of intracellular viral DNA level after 8 days by agarose gel electrophoresis method

## CC(=O)Nc1ccc(-c2cc(C)c(=O)n(Cc3ccc(Cl)cc3)n2)cc1
  IC50: 1.9 µM
